The subject of this data set is CCRIS mutagenicity, Ames/micronucleus/aberration tests. Put plainly: CCRIS mutagenicity studies.
Where [1] appears, read: Test System: AMES SALMONELLA TYPHIMURIUM, Strain/Indicator: TA98, Metabolic Activation: NONE, Method: PREINCUBATION
The mark [2] stands for this setting: Test System: AMES SALMONELLA TYPHIMURIUM, Strain/Indicator: TA100, Metabolic Activation: NONE, Method: PREINCUBATION
The mark [3] stands for this setting: Test System: AMES SALMONELLA TYPHIMURIUM, Strain/Indicator: TA1535, Metabolic Activation: NONE, Method: PREINCUBATION

SMILES strings stand for the structures. Active and inactive are the calls of the source. The rule behind the calls is not given here.

On to `COc1cccc2c1C(=O)c1c(O)c3c(c(O)c1C2=O)CC(O)(C(C)=O)CC3OC1CC(N(C)C)C(O)C(C)O1` (stereo not drawn), for which the mutagenic call is “inactive; negative” (Test System: CHINESE HAMSTER V-79, Strain/Indicator: V-79/8-AZAGUANINE, Metabolic Activation: RAT, HEPATOCYTES) and “active; positive” (Test System: UDS RAT HEPATOCYTES, Strain/Indicator: THY INCORP, Metabolic Activation: NONE, Method: AUTOMATIC COLONY COUNTER).

With `N#[N+]c1ccc([O-])cc1`, the mutagenic call is, setting by setting: under setting [1], “active; positive”; (Test System: AMES SALMONELLA TYPHIMURIUM, Strain/Indicator: TA98, Metabolic Activation: RAT, LIVER, S-9, POLYCHLORINATED BIPHENYLS, Method: PREINCUBATION) “active; positive”; under setting [2], “active; positive”; (Test System: AMES SALMONELLA TYPHIMURIUM, Strain/Indicator: TA100, Metabolic Activation: RAT, LIVER, S-9, POLYCHLORINATED BIPHENYLS, Method: PREINCUBATION) “active; positive”.

In the case of `N=NCCCO`, the mutagenic call is “active; positive” (Test System: AMES SALMONELLA TYPHIMURIUM, Strain/Indicator: TA1535, Metabolic Activation: NONE, Method: STANDARD PLATE); “active; positive” (Test System: E. COLI, Strain/Indicator: WP2, Metabolic Activation: NONE, Method: STANDARD PLATE); “active; positive” (Test System: E. COLI, Strain/Indicator: WP2 UVRA, Metabolic Activation: NONE, Method: STANDARD PLATE).

On to `Clc1ccc2oc3ccccc3c2c1`, for which the mutagenic call is, setting by setting: (Test System: AMES SALMONELLA TYPHIMURIUM, Strain/Indicator: TA98, Metabolic Activation: NONE, Method: STANDARD PLATE) “active; positive”; (Test System: AMES SALMONELLA TYPHIMURIUM, Strain/Indicator: TA98, Metabolic Activation: RAT, LIVER, S-9, PHENOBARBITAL AND NAPHTHOFLAVONE, Method: STANDARD PLATE) “active; positive”; (Test System: AMES SALMONELLA TYPHIMURIUM, Strain/Indicator: TA100, Metabolic Activation: NONE, Method: STANDARD PLATE) “inactive; negative”; (Test System: AMES SALMONELLA TYPHIMURIUM, Strain/Indicator: TA100, Metabolic Activation: RAT, LIVER, S-9, PHENOBARBITAL AND NAPHTHOFLAVONE, Method: STANDARD PLATE) “inactive; negative”.

Take `CCCCCCCOc1ccccc1NC(=O)OC(C)CN(CC)CC` (stereo not drawn): the mutagenic call is, setting by setting: (Test System: AMES SALMONELLA TYPHIMURIUM, Strain/Indicator: TA98, Metabolic Activation: MOUSE, LIVER, S-9, AROCLOR 1254, Method: PREINCUBATION) “inactive; negative”; under setting [1], “inactive; negative”; (Test System: AMES SALMONELLA TYPHIMURIUM, Strain/Indicator: TA100, Metabolic Activation: MOUSE, LIVER, S-9, AROCLOR 1254, Method: PREINCUBATION) “inactive; negative”; under setting [2], “inactive; negative”; (Test System: AMES SALMONELLA TYPHIMURIUM, Strain/Indicator: TA1535, Metabolic Activation: MOUSE, LIVER, S-9, AROCLOR 1254, Method: PREINCUBATION) “inactive; negative”; under setting [3], “inactive; negative”. Further, the mutagenic call by setting is: (Test System: AMES SALMONELLA TYPHIMURIUM, Strain/Indicator: TA1538, Metabolic Activation: MOUSE, LIVER, S-9, AROCLOR 1254, Method: PREINCUBATION) “inactive; negative”; (Test System: AMES SALMONELLA TYPHIMURIUM, Strain/Indicator: TA1538, Metabolic Activation: NONE, Method: PREINCUBATION) “inactive; negative”; (Test System: AMES SALMONELLA TYPHIMURIUM, Strain/Indicator: TA1978, Metabolic Activation: MOUSE, LIVER, S-9, AROCLOR 1254, Method: PREINCUBATION) “inactive; negative”; (Test System: AMES SALMONELLA TYPHIMURIUM, Strain/Indicator: TA1978, Metabolic Activation: NONE, Method: PREINCUBATION) “inactive; negative”; (Test System: E. COLI, Strain/Indicator: CM611 UVRA/LEXA, Metabolic Activation: MOUSE, LIVER, S-9, AROCLOR 1254, Method: PREINCUBATION) “inactive; negative”; (Test System: E. COLI, Strain/Indicator: CM611 UVRA/LEXA, Metabolic Activation: NONE, Method: PREINCUBATION) “inactive; negative”. In addition, the mutagenic call (Test System: E. COLI, Strain/Indicator: WP2, Metabolic Activation: MOUSE, LIVER, S-9, AROCLOR 1254, Method: PREINCUBATION) was “inactive; negative”; the mutagenic call (Test System: E. COLI, Strain/Indicator: WP2, Metabolic Activation: NONE, Method: PREINCUBATION) is “inactive; negative”; the mutagenic call (Test System: E. COLI, Strain/Indicator: WP2 UVRA, Metabolic Activation: MOUSE, LIVER, S-9, AROCLOR 1254, Method: PREINCUBATION) was “inactive; negative”; the mutagenic call (Test System: E. COLI, Strain/Indicator: WP2 UVRA, Metabolic Activation: NONE, Method: PREINCUBATION) is “inactive; negative”; the mutagenic call (Test System: E. COLI, Strain/Indicator: WP67 UVRA/POLA, Metabolic Activation: MOUSE, LIVER, S-9, AROCLOR 1254, Method: PREINCUBATION) was “inactive; negative”; the mutagenic call (Test System: E. COLI, Strain/Indicator: WP67 UVRA/POLA, Metabolic Activation: NONE, Method: PREINCUBATION) was “inactive; negative”.

Take `CCCCC(CC)COC(=O)CCCCCCCCC(=O)OCC(CC)CCCC` (stereo not drawn): the mutagenic call by setting is: (Test System: AMES SALMONELLA TYPHIMURIUM, Strain/Indicator: TA98, Metabolic Activation: HAMSTER, LIVER, S-9, AROCLOR 1254 (10%), Method: PREINCUBATION) “inactive; negative”; under setting [1], “inactive; negative”; (Test System: AMES SALMONELLA TYPHIMURIUM, Strain/Indicator: TA98, Metabolic Activation: RAT, LIVER, S-9, AROCLOR 1254 (10%), Method: PREINCUBATION) “inactive; negative”; (Test System: AMES SALMONELLA TYPHIMURIUM, Strain/Indicator: TA100, Metabolic Activation: HAMSTER, LIVER, S-9, AROCLOR 1254 (10%), Method: PREINCUBATION) “inactive; negative”; under setting [2], “inactive; negative”; (Test System: AMES SALMONELLA TYPHIMURIUM, Strain/Indicator: TA100, Metabolic Activation: RAT, LIVER, S-9, AROCLOR 1254 (10%), Method: PREINCUBATION) “inactive; negative”. Also, the mutagenic call is “inactive; negative” (Test System: AMES SALMONELLA TYPHIMURIUM, Strain/Indicator: TA1535, Metabolic Activation: HAMSTER, LIVER, S-9, AROCLOR 1254 (10%), Method: PREINCUBATION); “inactive; negative” under setting [3]; “inactive; negative” (Test System: AMES SALMONELLA TYPHIMURIUM, Strain/Indicator: TA1535, Metabolic Activation: RAT, LIVER, S-9, AROCLOR 1254 (10%), Method: PREINCUBATION); “inactive; negative” (Test System: AMES SALMONELLA TYPHIMURIUM, Strain/Indicator: TA1537, Metabolic Activation: HAMSTER, LIVER, S-9, AROCLOR 1254 (10%), Method: PREINCUBATION); “inactive; negative” (Test System: AMES SALMONELLA TYPHIMURIUM, Strain/Indicator: TA1537, Metabolic Activation: NONE, Method: PREINCUBATION); “inactive; negative” (Test System: AMES SALMONELLA TYPHIMURIUM, Strain/Indicator: TA1537, Metabolic Activation: RAT, LIVER, S-9, AROCLOR 1254 (10%), Method: PREINCUBATION). Further, the mutagenic call reads like this: (Test System: Ames Salmonella typhimurium, Strain/Indicator: TA98, Metabolic Activation: None, Method: Preincubation) “inactive; negative”; (Test System: Ames Salmonella typhimurium, Strain/Indicator: TA98, Metabolic Activation: Rat, Liver, S9, Phenobarbital and 5,6-benzoflavone, Method: Preincubation) “inactive; negative”; (Test System: Ames Salmonella typhimurium, Strain/Indicator: TA100, Metabolic Activation: None, Method: Preincubation) “inactive; negative”; (Test System: Ames Salmonella typhimurium, Strain/Indicator: TA100, Metabolic Activation: Rat, Liver, S9, Phenobarbital and 5,6-benzoflavone, Method: Preincubation) “inactive; negative”; (Test System: Ames Salmonella typhimurium, Strain/Indicator: TA1535, Metabolic Activation: None, Method: Preincubation) “inactive; negative”; (Test System: Ames Salmonella typhimurium, Strain/Indicator: TA1535, Metabolic Activation: Rat, Liver, S9, Phenobarbital and 5,6-benzoflavone, Method: Preincubation) “inactive; negative”. The mutagenic call was “inactive; negative” (Test System: Ames Salmonella typhimurium, Strain/Indicator: TA1537, Metabolic Activation: None, Method: Preincubation); “inactive; negative” (Test System: Ames Salmonella typhimurium, Strain/Indicator: TA1537, Metabolic Activation: Rat, Liver, S9, Phenobarbital and 5,6-benzoflavone, Method: Preincubation); “inactive; negative” (Test System: E. coli, Strain/Indicator: WP2uvrA/pKM101, Metabolic Activation: None, Method: Preincubation); “inactive; negative” (Test System: E. coli, Strain/Indicator: WP2uvrA/pKM101, Metabolic Activation: Rat, Liver, S9, Phenobarbital and 5,6-benzoflavone, Method: Preincubation).

(Values after PubChem BioAssay AID1259407 (Chemical Carcinogenesis Research Information System (CCRIS), 2018).)
